Test results from patent US20150004237A1, “CELLULOSE DERIVATIVES FOR INHIBITING CRYSTALLIZATION OF POORLY WATER-SOLUBLE DRUGS” (Virginia Tech Intellectual Properties, Inc., priority 2012, published 2015).
≈ marks a conversion by molar mass, not a printed value. Where “and” joins values, the source holds several entries; their conditions need not be identical. Identical values can stand only once. Like-named read-outs stand apart in the source and are kept apart here. Blank lines part the entries; values can stand above or below the compound they belong to.

Tests used:
[1] = Crystal growth rate of celecoxib (seeded desupersaturation); assay type: physicochemical; settings: supersaturation ratio of 1.2
physchem = settings: 37 °C, pH 6.8, aqueous buffer, thermodynamic from solid
[2] = Formation of X-ray amorphous resveratrol-polymer dispersion by rotary evaporation; assay type: physicochemical; settings: classification system of Van Eerdenbrugh et al.
Procedure: All mixtures were visually inspected to confirm that the resveratrol and the polymers were fully dissolved, and that the systems formed uniform one-phase solutions. […] The samples were then placed under vacuum for 24 h to remove any residual solvents. The obtained material was subsequently cryomilled in a liquid nitrogen bath for a total milling time of 4 min. Powder X-Ray Diffraction. Immediately after cryomilling, the samples were analyzed using a Shimadzu XRD-6000 (Shimadzu Corporation, Kyoto, Japan) equipped with a Cu-Kα source and set in Bragg-Brentano geometry between 5° and 35° 2θ at 8°/min with a 0.04° step size. Samples were also analyzed over time following the storage treatments listed above. […] Samples where sharp peaks were observed were deemed crystalline, and those samples that lacked sharp peaks were labeled X-ray amorphous. Physical mixtures of select resveratrol-polymer systems were made to provide a fully crystallized reference. The percent crystallized for certain samples was estimated from a calibration curve generated from analysis of the diffraction patterns of the different solid dispersions, spiked with increasing levels of crystalline resveratrol. […] The crystallinity of these calibration samples was measured immediately after preparation.

[3] = Ellagic acid release profile; assay type: physicochemical; settings: pH 6.8 buffer
[4] = cited from earlier work
[5] = Crystal growth rate of efavirenz (seeded desupersaturation); assay type: physicochemical; settings: supersaturation ratio of 1.2
[6] = Theoretical amorphous solubility with moisture sorption effect; assay type: physicochemical; settings: 37° C.
Description: Amorphous solubility can be approximated by estimating the free energy difference between crystalline and amorphous forms using the Hoffman equation: […]
The ratio of amorphous and crystalline solubility (Samorphous/Scrystalline) is then estimated from the free energy difference (ΔGa→σ) calculated from heat of fusion (ΔHf) and melting temperature (Tm) of the crystalline material determined from DSC analysis, as well as the experimentally determined crystalline solubility:
See Murdande, S. B., Pikal, M. J. Shanker, R. M. & Bogner, R. H., “Solubility Advantage of amorphous pharmaceuticals: I. A thermodynamic analysis,” J. Pharm. Sci., 99(3): 1254-1264, (2009) (“Murdande I”) and Murdande, S. B., Pikal, M. J. Shanker, R. M. & Bogner, R. H., “Solubility Advantage of amorphous pharmaceuticals: II. Application of quantitative thermodynamic relationships for prediction of solubility enhancement in structurally diverse insoluble pharmaceuticals,” Pharm. […]
The moisture sorption profile of amorphous ritonavir was determined at 37° C. using a TA Q5000 dynamic vapor sorption analyzer (TA Instruments, New Castle, Del.) equipped with a humidity controlled chamber and an ultrasensitive thermobalance. […] Subsequently, the moisture sorption isotherm was measured by equilibrating the sample under controlled relative humidity (RH) ranging from 5% RH to 95% RH, in 10% RH intervals. […]

[7] = Nucleation-induction time of ritonavir from supersaturated solution; assay type: physicochemical; settings: initial 20 μg/mL, no polymer, pH 6.8, 37° C.
Procedure: The period between the generation of supersaturation and initiation of nucleation was determined by monitoring the absorbance at 280 nm using an ultraviolet/visible spectrometer, fiber optic coupled with a dip probe (SI Photonics® Tucson, Ariz.). Wavelength scans were acquired every 45 seconds. Precipitation was characterized by an increased extinction at 280 nm wavelength. A supersaturated solution of ritonavir was generated by adding 0.4 mL of ritonavir dissolved in methanol at a concentration 4 mg/mL, to 80 mL sodium phosphate buffer, pH 6.8, at 37° C., providing an initial solution concentration of ritonavir of 20 μg/mL. The drug of compositions of the invention can be present in any amount ranging from about 0-100 μg/mL, such as from about 5-10 μg/mL, or from 15-20 μg/mL, or from 25-30 μg/mL, or from 35-50 μg/mL, or from 55-75 μg/mL, or from 80-90 μg/mL. Depending on the drug compound and the types and amounts of polymers used, the most preferred concentration of drug in the compositions ranges from about 5-25 μg/mL. A syringe pump (Harvard Apparatus, Holliston, Mass.) was used to control the rate of addition of organic solution of ritonavir to buffer solution; the flow rate was 0.20 mL/min. […] The ability of the various polymers to affect the nucleation of ritonavir was evaluated using a polymer concentration of 5 μg/mL. […]

[8] = Crystal growth rate of ritonavir (seeded desupersaturation); assay type: physicochemical
[9] = Ritonavir seed crystal size and morphology by SEM; assay type: physicochemical; settings: After Crystal Growth (S = 15.4)
Description: Characterization of Seed Crystals. Ritonavir seed crystals were characterized using scanning electron microscopy (SEM), powder X-ray diffraction analysis (PXRD), and differential scanning calorimetry (DSC). SEM was used to determine the size and shape of ritonavir crystals, while PXRD and DSC were used to evaluate the polymorph of the seed crystals. Ritonavir was used as received from the manufacturer, and prior to use, the seeds were sieved to a size below 250 p.m. Seed crystals used for SEM analysis were prepared by dispersing the seeds in water and equilibrating the water-seed crystal suspension for approximately 24 h. A few drops of the suspension were placed on a glass slide and dried overnight in a vacuum oven at room temperature for approximately 24 h. Before SEM imaging, the glass slides were mounted using double-sticky copper tape and sputter-coated with platinum for 60 s. SEM imaging was performed using an FEI NOVA nanoSEM field emission SEM using an Everhart-Thornley (ET) detector and a through-thelens detector (TLD). The following imaging parameters were used: 5 kV accelerating voltage, approximately 4-5 mm working distance, beam spot size of 3, 30 μm aperture, and 100-10,000× magnifications. The SEM images were analyzed using ImageJ, processing and analysis in Java (National Institutes of Health (NIH)). Several representative samples of seed crystals were obtained before and after crystal growth in the absence and presence of predissolved additive. For each sample, a total of 50 seeds were analyzed to ensure a representative sample, and the average aspect ratio of the crystals was estimated from the average length and width of the crystals.
The polymorphic form of the seed crystals after the crystal growth experiment was also confirmed to be Form II by PXRD. The average length, width, and aspect ratio of ritonavir seed crystals before and after the crystal growth experiment in the presence of the CAP Adp 0.85, Pn-IPAAmd, and CAP Adp 0.85/Pn-IPAAmd polymer combination at initial S values of 7.6 and 15.4 are summarized in Table 6.

[10] = Dynamic light scattering particle size of ritonavir during de-supersaturation; assay type: physicochemical; settings: ritonavir 25 μg/mL
Procedure: Dynamic light scattering (DLS) was used to monitor changes in particle size as a function of time during de-supersaturation experiments. DLS experiments were performed using a Nano-Zetasizer (Nano-ZS) and its software, dispersion technology software (DTS). A 173° backscatter detector was used in order to minimize the signal from large dust particles or other large contaminants. A quartz flow-through cuvette, coupled with a pump was used for continuous sampling. […] Particle size experiments were performed in the absence and presence of pre-dissolved polymers. As an example, ritonavir was used at an initial concentration of 25 μg/mL with a polymer concentration of 50 μg/mL. The buffer solution was allowed to equilibrate at 37° C. prior to addition of solubilized ritonavir. Data collection began after generation of supersaturation. A stir-plate was used to stir the solution at a speed of 400 rpm.

[11] = cited from earlier work; remark: listed apart in the source
[12] = pH 6.8; cited from earlier work
[13] = Quercetin release profile; assay type: physicochemical; settings: pH 6.8 buffer, Que 0.07 mg/mL
Procedure: In the measurement of drug release profiles, maximum Que concentration was fixed at 0.07 mg/mL in pH 6.8 buffer solution. The UV-vis absorption of the solution was measured and plotted vs. time. Release profiles were determined.

[14] = pH 6.8
[15] = After Crystal Growth (S = 7.6), values from ref 31 / ref 38
[16] = After Crystal Growth (S = 7.6), values from ref 31 / ref 38, listed as RTV
[17] = Before Crystal Growth, values from ref 31

Compound: O=c1oc2c(O)c(O)cc3c(=O)oc4c(O)c(O)cc1c4c23 [EA, Ellagic Acid]
EA release after 24 h [3]: 7%
time of maximum EA release [3]: 2 h
maximum EA release ([3]; 25° C., EA 0.05 mg/mL): 11%
aqueous solubility ([4]; pH 7.4): 9.3 µg/mL (≈ 30.8 µM)

Compound: Ritonavir
calculated amorphous solubility with moisture sorption correction [6]: 20.6 µg/mL
induction time of ritonavir [7]: approximately 119 minutes
initial bulk crystal growth rate of ritonavir ([8]; 100 mM sodium phosphate buffer, initial 10 μg/mL, no polymer, first 2 min): 1.56 µg/mL/min
normalized crystal growth rate of ritonavir ([8]; supersaturation ratio of 1.2): 3.94 μg mL^−1 min^−1 m^−2
aspect ratio [9]: 12.1
crystal morphology [9]: needle-like
length [9]: 50.9 ± 14.4 μm
width [9]: 4.2 ± 1.2 μm
time particle size was maintained ([10]; no polymer): ~100 min
size of ritonavir particles ([10]; polymer 50 μg/mL or none, pH 6.8, 37° C., initially formed particles): 350-450 nm
aspect ratio [11, 15]: 8.8 and 7.7
crystal morphology [11, 15]: needle-like
length [11, 15]: 50.4 ± 18.6 μm
width [11, 15]: 5.7±1.4 μm
aspect ratio [11, 16]: 8.8
width [11, 16]: 5.7 ± 1.4 μm
aspect ratio [11, 17]: 7.7
crystal morphology [11, 17]: needle-like
length [11, 17]: 44.4 ± 15.2 μm
width [11, 17]: 5.8 ± 1.9 μm
Equilibrium solubility of ritonavir, no polymer (Table 7) [12]: 1.3 ± 0.10 µg/mL

Compound: Poly vinylpyrrolidone K 29/32 [PVP]
Equilibrium solubility of ritonavir in the presence of polymer (Table 7) [12]: 1.2 ± 0.05 µg/mL

Compound: C=CC(=O)O [Acrylic acid]
pKa [4]: 4.76

Compound: O=c1c(O)c(-c2ccc(O)c(O)c2)oc2cc(O)cc(O)c12 [Que, Quercetin]
Que dissolution / release after 1 h [13]: 0.7%

Compound: poly(N-iso-propylacrylamide) [Pn-IPAAmd]
Equilibrium solubility of efavirenz in the presence of polymer [14]: 8.7 ± 0.07 µg/mL
Solubility of Ritonavir in the presence of polymer [14]: 1.3 ± 0.01 µg/mL
Equilibrium solubility of ritonavir in the presence of polymer (Table 7) [12]: 1.3 ± 0.01 µg/mL

More lines, main results first:

solubility thermodynamic at 48 h (physchem): 1.5 µg/mL (≈ 3.93 µM)
Compound: Cc1ccc(-c2cc(C(F)(F)F)nn2-c2ccc(S(N)(=O)=O)cc2)cc1 [celecoxib]
normalized crystal growth rate of celecoxib [1]: 18.20 μg mL^−1 min^−1 m^−2

crystallization tendency during production [2]: rapid crystallizer
Compound: Oc1ccc(/C=C/c2cc(O)cc(O)c2)cc1 [Resveratrol]

solubility thermodynamic at 48 h (physchem): 8.2 µg/mL (≈ 26 µM)
Compound: O=C1Nc2ccc(Cl)cc2[C@@](C#CC2CC2)(C(F)(F)F)O1 [efavirenz]
normalized crystal growth rate of efavirenz [5]: 59.32 μg mL^−1 min^−1 m^−2
